Positions of bridges follow the written chain, without caps; N, C: chain ends. Residues, ends and D or L forms follow the SMILES beside them.
How the values were obtained:
[1] = Peptide fraction helicity by CD at 222 nm, peptide-only samples; assay type: physicochemical; details: CD signal at 222 nm of peptide-only samples; pH 7.4 phosphate/KF/TCEP buffer; duplicate experiments
Method: (§1) The precise nature of the interaction between the cJun DBD and the rationally designed acidic domain of HW1 is unknown. HW1 was, therefore, iteratively truncated from the N terminus (HW2–6) to investigate the effect on cJun binding and cJun/TRE DNA antagonism (Table 1). Peptide fraction helicity (fH) was determined by quantifying the circular dichroism (CD) signal at 222 nm of peptide-only samples (Figure S1). Thermal denaturation experiments were then used to determine the melting temperature (Tm) of peptide-cJun heterodimers, which serves as an approximate measure of target engagement. CD was also used to investigate the functional activity of peptides in antagonizing the cJun/TRE DNA interaction. […] This provides a clear and direct measurement of the proportion of DNA bound to cJun. As antagonist peptide concentration was increased, the peak shifted to overlay with that of free TRE-DNA (Figure S4). For each peptide, the data were fit to a Hill equation to determine half-maximal inhibitory concentration (IC50) values, specific to these assay conditions, providing a clear comparative measure of antagonism. The same 60 amino acid cJun construct, encompassing the entire bZIP domain, was used for all experiments regardless of antagonist peptide length.

cJun [2] = target: T1, cJun (Homo sapiens, UniProt P05412); assay: CD thermal denaturation of peptide-cJun heterodimers (Tm); assay type: binding; details: for Tm of peptide-cJun heterodimer: CD ellipticity at 222 nm, 1-90 °C, peptide (5 μM)/cJun (5 μM), 20 mM potassium phosphate, 150 mM potassium fluoride, 2 mM TCEP pH 7.4, two-state fit, duplicate experiments, ± one SD
T1 construct: The same 60 amino acid cJun construct, encompassing the entire bZIP domain, was used for all experiments
T1 sequence (P05412 252-315 limits assumed): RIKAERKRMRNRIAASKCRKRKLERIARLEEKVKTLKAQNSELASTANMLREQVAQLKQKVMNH
Method: as §1
Figure 2 Iterative N-terminal truncation of HingeW reduces cJun binding and antagonism (A) Thermal denaturation profiles for iteratively truncated peptide (5 μM)/cJun (5 μM) heterodimer samples. (B) CD antagonism data produced by monitoring the shift in a DNA specific peak to provide a direct readout of cJun-DNA binding. Peptides are added at the indicated concentrations to a pre-incubated mixture of cJun (20 μM) and TRE DNA (5 μM). Data points were averaged from triplicate experiments, and error bars indicate one SD. The data were fitted to a Hill equation to determine IC50 values. Some higher peptide concentration data points for HW6 and HW9 are not shown in this plot for clarity.

cJun [3] = target: T1, cJun; assay: Isothermal titration calorimetry (ITC) with cJun; assay type: binding; details: 25 °C, pH 7.4, one-site model, average of two experiments ± one SD
Source text: A selection of peptides from this work were investigated by isothermal titration calorimetry (ITC) to quantify the thermodynamic parameters of their interaction with target cJun (Figure 4 and S6; Table 2). The determined equilibrium binding constant (KD) values follow from the CD data above and can be rationalized in terms of the truncation or lactamization they represent. […] All interactions investigated were dominated by the enthalpic component, with a smaller unfavorable entropic contribution, other than for HW8/cJun, which is the weakest interaction. The unfavorable entropic component was largest for the HW30/cJun interaction and smallest for HW23/cJun. This indicates the introduction of lactams produces a more unfavorable entropic component, perhaps a surprising result as helix-inducing lactamization is typically considered to increase affinity through entropic pre-organization. However, the larger increase in the favorable enthalpic component produces an increase in binding affinity due to lactamization. This is likely to be caused by a combination of enhanced intermolecular contacts and ordering that are opposed by unfavorable desolvation effects.
Two-μL injections of antagonist peptide at 25–200 μM were injected into the cell containing cJun at 2.5–20 μM at 25°C. Microcal Control and Analysis software were used to record and analyze the heat change upon addition and fit the data to a one-site binding model to extract the enthalpy change of binding (ΔH) and the KD, from which the free energy change of binding (ΔG) and the entropy change of binding (ΔS) were calculated.[40] Control experiments involved the injection of the antagonist peptide sample into the cell containing ITC buffer alone to determine the heat of dilution, which was subtracted. Thermodynamic parameters are presented as an average of two independent experiments with errors given as one SD.

Stability in human serum = details: human serum (Merck), 75 μL of 600 μM peptide stock added to 1425 μL serum, 37 °C, 3-day endpoint; acetonitrile:water precipitation; LC-MS, sum of two largest charge-state peaks; average of three repeats
cJun/TRE DNA interaction = target: T2, cJun/TRE DNA interaction (Homo sapiens, UniProt P05412); assay: CD antagonism of the cJun/TRE DNA interaction; assay type: biochemical
T2 construct: The same 60 amino acid cJun construct, encompassing the entire bZIP domain, was used for all experiments
T2 sequence (P05412 252-315 limits assumed): as above
Method: as §1, with “For each peptide, the data were fit to a Hill equation to determine half-maximal inhibitory concentration (IC50) values, specific to these assay conditions, providing a clear comparative measure of antagonism. The same 60 amino acid cJun construct, encompassing the entire bZIP domain, was used for all experiments regardless of antagonist peptide length.” left out
Figure 2 Iterative N-terminal truncation of HingeW reduces cJun binding and antagonism (A) Thermal denaturation profiles for iteratively truncated peptide (5 μM)/cJun (5 μM) heterodimer samples. (B) CD antagonism data produced by monitoring the shift in a DNA specific peak to provide a direct readout of cJun-DNA binding. […]

[4] = target: T3, cJun (60 amino acid construct encompassing the entire bZIP domain) (UniProt P05412 252-315); assay: cell-based or functional assay
T3 sequence (P05412 252-315): as the sequence (P05412 252-315 limits assumed) above

[5] = target: T3, cJun (60 amino acid construct …); assay: CD thermal denaturation; peptide (5 μM) with cJun (5 μM); ellipticity at 222 nm, 1°C to 90°C; 20 mM potassium phosphate, 150 mM potassium fluoride, 2 mM TCEP, pH 7.4; two-state fit gives the Tm of the peptide-cJun heterodimer; duplicate experiments; details: both partners purified
[6] = CD thermal denaturation; peptide alone (no cJun); thermal denaturation curves compared as a sign of homodimerization; details: other: CD thermal denaturation
[7] = target: cJun (60 amino acid construct encompassing the entire bZIP domain) (UniProt P05412)
cJun (60 amino acid construct encompassing the entire bZIP domain) (UniProt P05412), sequence (P05412 252-315): as the sequence (P05412 252-315 limits assumed) above

[8] = target: T3, cJun (60 amino acid construct …); assay: ITC; antagonist peptide at 25–200 μM injected into cJun at 2.5–20 μM in the cell, 25°C; 20 mM potassium phosphate, 150 mM potassium fluoride, 2 mM TCEP, pH 7.4; one-site binding model; two independent experiments; details: both partners purified
[9] = peptide 25-200 μM injected into cJun 2.5-20 μM

For “Ac-EAEELVVEEDVLEEEIEQLEERNYALRKEIEDLQKQLEKL-NH2 [HW4]”, the “fH, peptide fraction helicity” value [1] was 45.5%, the “Tm of peptide-cJun heterodimer” value (cJun [2]) was 64.1 ± 1.5 °C and the ΔH (cJun [3]) was -189.95 ± 8.09 kJ/mol. For the same molecule, the “Stoichiometry, n” value (cJun [3]; [9]) was 0.91 ± 0.04.

For “Ac-EAEELVVEEDVLEEEIEQLEERNYALRKEIEDLQKQ-NH2 [HW8]”, the “fH, peptide fraction helicity” value [1] was 37.3%, the “Tm of peptide-cJun heterodimer” value (cJun [2]) was 57.1 ± 0.9 °C and the ΔH (cJun [3]) was -25.06 ± 3.40 kJ/mol. For the same molecule, the “Stoichiometry, n” value (cJun [3]; [9]) was 0.95 ± 0.09 and the “peptide remaining in human serum, peak intensity relative to starting value” (Stability in human serum) was “fully degraded”.

With `CC[C@H](C)[C@H](NC(=O)[C@H](CCC(=O)O)NC(=O)[C@H](CCCCN)NC(=O)[C@H](CCCNC(=N)N)NC(=O)[C@H](CC(C)C)NC(=O)[C@H](C)NC(=O)[C@H](Cc1ccc(O)cc1)NC(=O)[C@H](CC(N)=O)NC(=O)[C@H](CCCNC(=N)N)NC(=O)[C@H](CCC(=O)O)NC(=O)[C@H](CCC(=O)O)NC(=O)[C@H](CC(C)C)NC(=O)[C@H](CCC(N)=O)NC(=O)[C@H](CCC(=O)O)NC(=O)[C@@H](NC(=O)[C@H](CCC(=O)O)NC(=O)[C@H](CCC(=O)O)NC(=O)[C@H](CCC(=O)O)NC(=O)[C@H](CC(C)C)NC(=O)[C@@H](NC(=O)[C@H](CC(=O)O)NC(=O)[C@H](CCC(=O)O)NC(=O)[C@H](CCC(=O)O)NC(=O)[C@@H](NC(=O)[C@@H](NC(=O)[C@H](CC(C)C)NC(=O)[C@H](CCC(=O)O)NC(=O)[C@H](CCC(=O)O)NC(=O)[C@H](C)NC(=O)[C@H](CCC(=O)O)NC(C)=O)C(C)C)C(C)C)C(C)C)[C@@H](C)CC)C(=O)N[C@H]1CCCCNC(=O)C[C@@H](C(=O)N[C@@H](CCC(N)=O)C(N)=O)NC(=O)[C@H](CCC(N)=O)NC(=O)[C@H](CC(C)C)NC(=O)[C@H](CC(=O)O)NC1=O` [HW29] (Ac-EAEELVVEEDVLEEEIEQLEERNYALRKEIKDLQDQ-NH2; lactam 31-35) the “ΔTm of cJun heterodimer due to lactamization” value (cJun [2]; cyclized versus its linear (non-lactamized) counterpart) was about 9 °C, the “ΔTm of cJun heterodimer relative to parent sequence HW8” value (cJun [2]; versus HW8, before the substitutions for K and D residues) was about 8 °C and the Kd (cJun [3]; [9]) was 86.6 ± 17 nM. For the same molecule, the “peptide remaining in human serum, peak intensity relative to starting value” (Stability in human serum) was 31%.

With “MASLEQRAEELARENEELEKEAEELVVE-NH2 [HW7, acidic domain of HW1 alone (CΔ35)]” the “antagonism of the ability of cJun to bind TRE DNA (in words)” value (cJun/TRE DNA interaction; CD antagonism assay) was “did not” and the “binding to cJun (in words)” value (cJun [2]; acidic domain alone) was “not to bind”.

With `CC[C@H](C)[C@H](NC(=O)[C@H](CCC(=O)O)NC(=O)[C@H](CCCCN)NC(=O)[C@H](CCCNC(=N)N)NC(=O)[C@H](CC(C)C)NC(=O)[C@H](C)NC(=O)[C@H](Cc1ccc(O)cc1)NC(=O)[C@H](CC(N)=O)NC(=O)[C@H](CCCNC(=N)N)NC(=O)[C@H](CCC(=O)O)NC(=O)[C@H](CCC(=O)O)NC(=O)[C@H](CC(C)C)NC(=O)[C@H](CCC(N)=O)NC(=O)[C@H](CCC(=O)O)NC(=O)[C@@H](NC(=O)[C@H](CCC(=O)O)NC(=O)[C@@H]1CC(=O)NCCCC[C@H](NC(=O)[C@H](CCC(=O)O)NC(=O)[C@H](CCC(=O)O)NC(=O)[C@@H](NC(=O)[C@@H](NC(=O)[C@H](CC(C)C)NC(=O)[C@H](CCC(=O)O)NC(=O)[C@H](CCC(=O)O)NC(=O)[C@H](C)NC(=O)[C@H](CCC(=O)O)NC(C)=O)C(C)C)C(C)C)C(=O)N[C@@H](C(C)C)C(=O)N[C@@H](CC(C)C)C(=O)N[C@@H](CCC(=O)O)C(=O)N1)[C@@H](C)CC)C(=O)N[C@H]1CCCCNC(=O)C[C@@H](C(=O)N[C@@H](CCC(N)=O)C(N)=O)NC(=O)[C@H](CCC(N)=O)NC(=O)[C@H](CC(C)C)NC(=O)[C@H](CC(=O)O)NC1=O` [HW30] (Ac-EAEELVVEEKVLEDEIEQLEERNYALRKEIKDLQDQ-NH2; lactam 10-14, 31-35) the “peptide remaining in human serum, peak intensity relative to starting value” (Stability in human serum) was 56%.

With “Ac-EAEELVVEEDVLEEEIEQLEEKNKALKDEIEDLY-NH2 [HW14]” the IC50 (cJun/TRE DNA interaction; peptide added to pre-incubated cJun (20 μM) and TRE DNA (5 μM), shift of DNA CD peak at ~281 nm, 30 min equilibration, pH 7.4, Hill fit, triplicate experiments, ± one SD, read-out: IC50 CD (antagonism of cJun/TRE DNA binding)) was 1.56 mM and the “fH, peptide fraction helicity” value [1] was 30.1%.

B1: HW5 (peptide)
peptide: Ac-LVVEEDVLEEEIEQLEERNYALRKEIEDLQKQLEKL-NH2
notes: truncation NΔ24 CΔ3 of HW1; source: synthetic peptide (Fmoc SPPS, RP-HPLC purified)
With B1 the “IC50 CD: peptide added to pre-incubated cJun (20 μM) and TRE DNA (5 μM); blocks cJun/TRE DNA binding” value [4] was 78.2 µM, the “Tm of the peptide-cJun heterodimer” value [5] was 62.8 °C and the “Tm of the peptide alone” value [6] was “HW5 displayed a Tm of 41 °C”.

For Ac-EAEELVVEEDVLEEEIEQLEEKNKALKDEIEDLY-NH2 [HW14], the IC50 CD: peptide added to pre-incubated cJun (20 μM) and TRE DNA (5 μM); blocks cJun/TRE DNA binding [7] was 1560 µM.

B2: HW4 (peptide)
peptide: Ac-EAEELVVEEDVLEEEIEQLEERNYALRKEIEDLQKQLEKL-NH2
notes: truncation NΔ20 CΔ3 of HW1; source: synthetic peptide (Fmoc SPPS, RP-HPLC purified)
For B2, the “IC50 CD: peptide added to pre-incubated cJun (20 μM) and TRE DNA (5 μM); blocks cJun/TRE DNA binding” value [4] was 45.4 µM, the “Tm of the peptide-cJun heterodimer” value [5] was 64.1 °C and the Kd [8] was 91.1 nM. The dH [8] was -190 kJ/mol and the “stoichiometry N” value [8] was 0.91.
